Test results as given in patent publication US9359405B2, “Antagonists of the interleukin-1 receptor” (Phlogo ApS, priority 2011, dated 2016).
No end group written: not given here.

What was measured:
IL1RI = molecular target: T1, IL1RI (Homo sapiens, UniProt P14778); assay: SPR (BiaCore) binding to immobilized IL1RI ectodomain; conditions: 25° C., pH 7.4
T1 construct: The recombinant protein comprising the whole extracellular part of IIL1RI was immobilised on the surface of a CM5 sensor chip
T1 sequence (P14778 18-336 limits assumed): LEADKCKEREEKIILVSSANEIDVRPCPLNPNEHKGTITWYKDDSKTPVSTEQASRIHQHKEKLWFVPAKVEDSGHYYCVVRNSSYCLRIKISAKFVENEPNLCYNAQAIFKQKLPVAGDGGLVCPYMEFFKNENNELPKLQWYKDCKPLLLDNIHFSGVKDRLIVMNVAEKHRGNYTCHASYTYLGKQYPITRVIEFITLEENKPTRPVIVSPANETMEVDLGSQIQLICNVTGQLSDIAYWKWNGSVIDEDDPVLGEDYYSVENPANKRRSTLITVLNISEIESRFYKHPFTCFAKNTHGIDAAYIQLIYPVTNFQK
Method: Binding analysis was performed using a BiaCore 2000 Instrument (BiaCore AB, Uppsala, Sweden) at 25° C. using 10 mM sodium phosphate (pH 7.4), 150 mM NaCl as running buffer. The flow-rate was 5 μl/min. Data were analysed by nonlinear curve fitting using the manufacturer's software. The recombinant protein comprising the whole extracellular part of IIL1RI was immobilised on the surface of a CM5 sensor chip by means of electrostatic interactions, and the peptide and the IL1β and IL1Ra proteins were injected at various concentrations. The curves corresponding to the difference between binding to peptides and a blank chip were used for analysis.

[1] = test system: collagen-induced arthritis (CIA); assay: Collagen-induced arthritis in rats, treatment dpi 8-15 (Example 14); assay type: in vivo, rat; conditions: 10.0 mg/kg s.c. daily dpi 8-15
Method: Induction of CIA. The CIA study was performed on a total of 40 male Wistar rats with an average weight of 150 g at the beginning of the experiment. CIA was induced by subcutaneous (s.c.) injection of bovine collagen type II (CII, Sigma-Aldrich) solubilised in 0.05 M acetic acid (2 mg/ml), and then emulsified 1:1 with CFA (Sigma-Aldrich) containing […] heat-inactivated M. tuberculosis. Under inhalation anaesthesia (Isofluran, 3%) 250 μl of the emulsion containing 250 μg of CII and […] was injected (s.c.) at the tail base (post-immunization day, dpi 0).
Treatment design. At dpi 8, before onset of clinical signs, all animals were randomly divided into two groups, 20 rats per group, and were dosed daily during 8 days (dpi 8-15) with Ilantafin (10.0 mg/kg, s.c.) or vehicle (PBS, 1.0 ml/kg, s.c.). […]
Clinical scores. An observer blinded to treatment groups evaluated the severity of arthritis employing the following grading system: O— no redness or swelling in foot; 1—slight redness in foot or redness and swelling in single interfalangeal joints; 2—moderate swelling and redness in ankle and metatarsal part of foot; 3—marked swelling and redness of entire foot, restricted usage of foot in locomotion; 4—marked swelling and redness of entire foot, impossibility of usage foot in locomotion and rearing. […]

[2] = test system: cerebellar granule neurons; assay: Neurite outgrowth in primary cerebellar granule neurons; assay type: cell-based, rat; conditions: 24 h, primary cerebellar neurons
Method: Cerebellar granular neurons (CGN) were prepared from 3 or 7 postnatal (P) day Wistar rats (Charles River, Sulzfeld, Germany or Taconic, Ejby, Denmark). Cerebella were cleared of meninges and blood vessels, roughly homogenized by chopping, and trypsinized with trypsin from Sigma-Aldrich (Brøndby, Denmark). The neurons were washed in the presence of DNAse 1 and soybean trypsin inhibitor (Sigma-Aldrich), and cellular debris was pelleted by centrifugation before plating. CGNs were plated at a density of 10,000 cells/well onto uncoated eight-well Lab-Tek chamber slides (NUNC, Slangerup, Denmark) in Neurobasal-A medium supplemented with 0.4% (w/v) BSA. Peptides or proteins at various concentrations were added to the medium immediately after plating, and cells were maintained at 37° C. and 5% CO2 for 24 h. Cultures then were fixed, blocked and incubated with polyclonal rabbit antibody against rat GAP-43 (Chemicon, Temecula, Calif., USA) followed by incubation with secondary Alexa Fluor488 goat anti-rabbit antibody (Molecular Probes, Eugene, Oreg., USA) as previously described (Neiiendam et al., 2004). The immunostained cultures were all recorded by computer-assisted fluorescence microscopy using a Nikon Diaphot inverted microscope (Nikon, Japan) equipped with a Nikon Plane 20× objective. Images were captured with a charge-coupled device video camera (Grundig Electronics, Nurnberg, Germany) using the software package Prima developed at the Protein Laboratory (University of Copenhagen, Copenhagen, Denmark). The length of neuronal processes per cell was estimated using the software package Process Length developed at the Protein Laboratory (Ronn et al. 2000). For estimation of neurite outgrowth, at least 200±20 cells were processed for each group in each individual experiment.

[3] = test system: cerebellar granule neurons; assay: Survival assay, cerebellar granule neurons, low-potassium apoptosis; assay type: cell-based, rat; conditions: 5 mM KCl
Method: Survival assay: Primary cultures of CGN were plated at a density of 100,000 cells/cm2 on poly-L-lysine coated 8-well permanox slides in Neurobasal-A medium (Gibco BRL) supplemented with 2% (v/v) B27, 0.5% (v/v) glutamax, 100 units/mL penicillin, 100 µg/mL streptomycin and KCl, making the final concentration of KCl in the medium 40 mM. 24 hours after plating, cytosine-b-D-arabinofuranoside (Ara-C; Sigma-Aldrich) was added to a final concentration of 10 μM to avoid proliferation of glial cells, after which the neurons were allowed to differentiate for a further 6 days at 37° C. Apoptotic cell death was induced by washing twice and changing the medium to Basal Medium Eagle (BME; Gibco BRL) supplemented with 1% (v/v) glutamine, 100 U/mL penicillin and 100 µg/mL streptomycin, 3.5 g D-glucose/L and 1% (v/v) sodium pyruvate (Gibco BRL) together with various concentrations of peptide. Thereby the concentration of potassium in the cultures was reduced to 5 mM KCl (Ditlevsen et al., 2003). Two days after induction of apoptosis, the cells were fixed with 4% (v/v) formaldehyde and stained with Hoechst 33258 as described for the survival assay employing hippocampal neurons.

[4] = test system: STAT signalling induced by IL6, HEK-Blue IL6 cells; assay: Target specificity, HEK-Blue IL6 cells; assay type: cell-based
Description: IL1RI signaling assay: Commercially available Blue™ Cytokine Reporter Cell technology from InvivoGen (Denmark distributor: Sigma-Aldrich Denmark) was used. It is represented by an expanding family of engineered cell lines designed to provide a simple, rapid, and reliable method of monitoring the activation of signaling pathways induced by key cytokines. HEK-Blue™ IL1β cells are specifically engineered to selectively respond to IL1β, and they feature the secreted embryonic alkaline phosphatase (SEAP) reporter gene under the control of an NF-κB-inducible promoter. […] A target/receptor-specificity of the Ilantafin effect was verified employing HEK-Blue™ IL6 cells.

Sequence: SGRKSSKMQA [Ilantafin]
- affinity of interaction with immobilized ectodomain of IL1RI (IL1RI): within the same order of magnitude as the binding affinities of IL1β and IL1Ra to IL1RI
- morbidity (percentage of animals reached clinical index 7) [1]: significantly reduced morbidity by dpi 12
- severity of CIA (clinical score) [1]: attenuated severity of CIA on dpi 13-15
- neurite outgrowth [2]: induce neurite outgrowth in primary cerebellar neurons in a dose-dependent manner
- survival effect compared with IGF-1 [3]: comparable with the effect of the neuronal survival factor IGF-1
- neuronal survival / cell death (apoptosis) induced by lowering potassium ([3]; 2 days): reduces neuronal cell death (apoptosis)
- effect on STAT signalling induced by IL6 [4]: does not inhibit signaling induced by IL6
